# Test results as given in US5336485A, “Method for protecting animals against tacrine induced cytotoxic injury using sterol compounds” (priority 1993, dated 1994).
# Structures can show the parent of a compound that is named as a salt. Where two headings read alike, the source gives them in different places.
# Columns and labels:
# L1210 leukemia cells = conditions: 100 mg/kg ip
# rat hepatocytes [1] = test: EMS-induced cytotoxicity (LDH leakage/cell death) in rat hepatocyte suspensions; conditions: for Protection From Toxic Injury: EMS 3 h; for inhibition at 25 µM: Rattus norvegicus, Hepatocyte
# Sprague-Dawley rats = test: Paraquat lethality in rats; conditions: rat, in vivo
# Experimental: Rats received a 100 mg/kg (ip) dose of alpha-TS twenty four hours prior to a 40 mg/kg (ip) insult of paraquat which is a lung specific toxic agent. The rats also received a 100 mg/kg (ip) dose of alpha-TS each day after the paraquat insult.
# rat hepatocytes [2] = test: Cellular alpha-tocopherol and tocopherol ester content of rat hepatocytes; conditions: for Hepatocyte Concentration Alpha-T / Hepatocyte Concentration Alpha-TS: EMS 3 h
# Experimental: At each time-point, rapid separation of viable from non-viable hepatocytes and medium was accomplished by the dibutyl phthalate centrifugation method. Cell viability was monitored hourly by measuring LDH leakage with a Cobas Analyzer and intracellular [K^+ ]with a flame photometer. LDH was routinely measured in the medium while intracellular K^+ was measured in the 10% perchloric acid lysate of viable cells. Lipid peroxidation was determined by measuring TBA reactants in the medium. […] The samples were diluted with 0.3 ml 1% ascorbate in 0.1 M SDS, 0.4 ml ethanol, sonicated and extracted once with 0.8 ml hexane. Next, the hexane extract was evaporated to dryness with N2, the residue dissolved in 2.5% ascorbate in methanol (1 ml) and analyzed (100 μl) by high-performance liquid chromatograph (HPLC). […] The mobile phase, 95% MeOH was run isocratically and the HPLC retention times for delta and alpha-tocopherol were approximately eleven and sixteen minutes, respectively. […] Following the addition of 0.2 ml 4 M HC1, the neutralized KOH-MeOH extracted with 0.8 ml hexane. […] A standard curve for each tocopherol congener was run with every assay. […] Only viable cells were monitored in the laboratory procedures.
# The hepatocytes were subsequently exposed to 50mM EMS for three hours.
# epidermoid carcinomas = conditions: local administration; cited from earlier work
# canine hepatocytes = test: Intracellular K+ of canine hepatocytes exposed to EMS; assay type: cell-based; conditions: 25 μM, 50 mM EMS
# From the text: Medzhradsky, Biochem. Med. 13:164 (1975), has noted that the cell's ability to maintain its intracellular concentration of potassium (K^+) is an excellent indicator of the metabolic integrity of the cell. A concentration gradient exists for K^+ with greater concentrations found intracellularly. To maintain this gradient, the cell is dependent on the action of the Na^+ -K^+ ATPase pump and an adequate supply of ATP. As cellular ATP levels decline, the ATPase pump is unable to maintain the gradient resulting in the loss of intracellular K^+ by equilibration with the extracellular space. Because the maintenance of cellular metabolic processes is essential to the continual repair and survival of cells, organ systems, and organisms, the effect of alpha-TS on the metabolic integrity of rat liver cells during a toxic insult was investigated by measuring intracellular K^+ levels. FIGS. 2a-2b show the response of rat and canine hepatocytes, respectively, exposed to 50 mM EMS. […] The response curves shown in FIGS. 2a and 2b indicate that alpha-TS under physiological conditions can maintain the metabolic integrity of animal hepatocytes during a toxic insult.
# Only viable cells were monitored in the laboratory procedures.
# male Sprague-Dawley rats = test: Energy status of rat tissue; assay type: in vivo; conditions: 100 mg/kg ip, 24 h
# Experimental: An in vivo experiment was performed to determine the effect of alpha-TS on the energy status of rat tissues. Male Sprague-Dawley rats were administered alpha-TS (100 mg/kg, single ip dose) or olive oil (vehicle only, 0.2 ml, single ip dose). Three rats were used per treatment. The rats fasted for 24 hours after ip dosage prior to sacrifice and analysis of tissues.
# [3] = 50 mM EMS + 25 μM alpha-TS + 100 μM Bis-(p-nitrophenyl) phosphate
# [4] = 50 mM EMS + 25 μM alpha-TS + 100 μM Diethyl p-nitrophenyl phosphate
smiles,measurement,setting,value
CC(C)CCC[C@@H](C)[C@H]1CC[C@H]2[C@@H]3CC=C4C[C@@H](OC(=O)CCC(=O)O)CC[C@]4(C)[C@H]3CC[C@]12C [Cholesteryl Succinate tris salt],Survival Time,L1210 leukemia cells,6.8 ± 0.4 days
"Cc1c(C)c2c(c(C)c1OC(=O)CCC(=O)O)CC[C@@](C)(CCC[C@H](C)CCC[C@H](C)CCCC(C)C)O2 [alpha-TS, d-alpha-tocopheryl succinate]",protection against loss of viability,"rat hepatocytes [1]; 0.5 μM, EMS",85%
same,protection against loss of viability and metabolic performance,"rat hepatocytes [1]; 2 μM, EMS",100%
same,Protection From Toxic Injury,rat hepatocytes [1]; 2.0 μM,Yes
same,Protection From Toxic Injury,rat hepatocytes [1]; 10 μM,Yes
same,Protection From Toxic Injury,rat hepatocytes [1]; 25 μM,Yes
same,Protection From Toxic Injury,rat hepatocytes [1]; 250 μM,Yes
same,Cell Death,rat hepatocytes [1]; 50 mM EMS + 25 μM alpha-TS,30 ± 7%
same,Cell Death,rat hepatocytes [1]; [3],52 ± 3%
same,Cell Death,rat hepatocytes [1]; [4],58 ± 8%
same,Cell Death,"rat hepatocytes [1]; 50 mM EMS, 5 Hrs, alpha-TS 25, methyl ester 50, cholesteryl succinate 100, monomethyl/dimethyl succinate 250 μM",27 ± 1%
same,Protection From Toxic Injury,rat hepatocytes [1]; .5 μM,Yes
same,% Cell Death,"rat hepatocytes [1]; EMS 50 mM, 25 μM alpha-TS (no alpha-TS 68)",25%
same,inhibition at 25 µM,"rat hepatocytes [1]; 5 h, read-out: Percent Cytoprotection, 25 μM, 50 mM EMS, 5 h",92 ± 3%
same,inhibition at 25 µM,"rat hepatocytes [1]; read-out: % Protection, 25 μM, 50 mM EMS",100%
same,protection from lethal effects of EMS,"rat hepatocytes [1]; rat hepatocytes, 25 μM, 50 mM EMS",protected both rat and canine hepatocytes from the lethal effects
same,survival time of paraquat exposed rats,Sprague-Dawley rats,6 days
same,cellular alpha-TS content,rat hepatocytes [2]; 0.5 μM,approximately 0.025 nmoles/10^6 cells
same,Hepatocyte Concentration Alpha-T,rat hepatocytes [2]; 2.0 μM,0.4 ± 0.1 nmol/10^6 cells
same,Hepatocyte Concentration Alpha-TS,rat hepatocytes [2]; 2.0 μM,0.2 ± 0.1 nmol/10^6 cells
same,Hepatocyte Concentration Alpha-T,rat hepatocytes [2]; 10 μM,0.8 ± 0.1 nmol/10^6 cells
same,Hepatocyte Concentration Alpha-TS,rat hepatocytes [2]; 10 μM,0.7 ± 0.1 nmol/10^6 cells
same,cellular accumulation rate of alpha-TS,rat hepatocytes [2]; 25 μM dose,1.65 nmol/10^6 cells/hr
same,cellular release rate of succinate (as measured by alpha-tocopherol release),rat hepatocytes [2]; 25 μM dose,0.65 nmol/10^6 cells/hr
same,Hepatocyte Concentration Alpha-T,rat hepatocytes [2]; 25 μM,0.9 ± 0.1 nmol/10^6 cells
same,Hepatocyte Concentration Alpha-TS,rat hepatocytes [2]; 25 μM,2.5 ± 0.1 nmol/10^6 cells
same,Cellular Tocopherol ester,"rat hepatocytes [2]; 25 μM, Table 2",2.6 nmoles/10^6 cells
same,Cellular alpha-T,"rat hepatocytes [2]; 25 μM, Table 2",0.7 nmoles/10^6 cells
same,Hepatocyte Concentration Alpha-T,rat hepatocytes [2]; 250 μM,0.9 ± 0.1 nmol/10^6 cells
same,Hepatocyte Concentration Alpha-TS,rat hepatocytes [2]; 250 μM,7.6 ± 1.7 nmol/10^6 cells
same,Cellular alpha-T,rat hepatocytes [2]; 50 mM EMS + 25 μM alpha-TS,.81 ± .05 nmoles/10^6 cells
same,Cellular alpha-TS,rat hepatocytes [2]; 50 mM EMS + 25 μM alpha-TS,2.73 ± .67 nmoles/10^6 cells
same,Cellular alpha-T,rat hepatocytes [2]; [3],.20 ± .05 nmoles/10^6 cells
same,Cellular alpha-TS,rat hepatocytes [2]; [3],2.61 ± .61 nmoles/10^6 cells
same,Cellular alpha-T,rat hepatocytes [2]; [4],.19 ± .05 nmoles/10^6 cells
same,Cellular alpha-TS,rat hepatocytes [2]; [4],2.56 ± .24 nmoles/10^6 cells
same,Hepatocyte Concentration Alpha-T,rat hepatocytes [2]; .5 μM,0.2 ± 0.1 nmol/10^6 cells
same,tumor regression,epidermoid carcinomas,dramatic regression
same,intracellular K+ during EMS insult,canine hepatocytes,no loss of intracellular K+
same,"ATP, Blood",male Sprague-Dawley rats,647 ± 29 nmol/g
same,"ATP, Brain",male Sprague-Dawley rats,293 ± 86 nmol/g
same,"ATP, Heart",male Sprague-Dawley rats,2782 ± 868 nmol/g
same,"ATP, Kidney",male Sprague-Dawley rats,515 ± 44 nmol/g
same,"ATP, Liver",male Sprague-Dawley rats,458 ± 57 nmol/g
same,"ATP, Lung",male Sprague-Dawley rats,418 ± 18 nmol/g
same,"Glucose, Blood",male Sprague-Dawley rats,4.8 ± 0.3 µmol/g
same,"Glucose, Heart",male Sprague-Dawley rats,10.1 ± 1.7 µmol/g
same,"Glucose, Kidney",male Sprague-Dawley rats,3.4 ± 1.1 µmol/g
same,"Glucose, Liver",male Sprague-Dawley rats,21.7 ± 9.7 µmol/g
same,"Glucose, Lung",male Sprague-Dawley rats,4.1 ± 0.5 µmol/g
same,"Glycogen, Blood",male Sprague-Dawley rats,117 ± 26 µmol/g
same,"Glycogen, Brain",male Sprague-Dawley rats,1400 ± 372 nmol/g
same,"Glycogen, Heart",male Sprague-Dawley rats,4320 ± 946 nmol/g
same,"Glycogen, Kidney",male Sprague-Dawley rats,211 ± 44 µmol/g
same,"Glycogen, Liver",male Sprague-Dawley rats,778 ± 98 µmol/g
same,"Glycogen, Lung",male Sprague-Dawley rats,634 ± 133 µmol/g
same,"Lactate, Blood",male Sprague-Dawley rats,1.68 ± .06 µmol/g
same,"Lactate, Brain",male Sprague-Dawley rats,7.82 ± .20 µmol/g
same,"Lactate, Heart",male Sprague-Dawley rats,10.84 ± 2.67 µmol/g
same,"Lactate, Kidney",male Sprague-Dawley rats,3.10 ± .21 µmol/g
same,"Lactate, Liver",male Sprague-Dawley rats,3.36 ± .20 µmol/g
same,"Lactate, Lung",male Sprague-Dawley rats,2.24 ± .29 µmol/g
